According to ChEMBL document CHEMBL5291721, “A preclinical secondary pharmacology resource illuminates target-adverse drug reaction associations of marketed drugs” (Nat Commun, 2023):
Values joined by “and” are separate entries in the source; they are usually repeats but may differ in a detail not shown here. Equal entries are not always repeated.

Experiments:
Adenosine receptor A2a = Adenosine receptor A2a (Homo sapiens, UniProt P29274)
[1] = molecular target: Beta-1 adrenergic receptor (Homo sapiens, UniProt P08588); type: functional
[2] = molecular target: Beta-2 adrenergic receptor (Homo sapiens, UniProt P07550)
[3] = molecular target: T1, Muscarinic acetylcholine receptor M2 (Homo sapiens, UniProt P08172); type: functional, cell-based
T1 sequence (P08172 whole entry): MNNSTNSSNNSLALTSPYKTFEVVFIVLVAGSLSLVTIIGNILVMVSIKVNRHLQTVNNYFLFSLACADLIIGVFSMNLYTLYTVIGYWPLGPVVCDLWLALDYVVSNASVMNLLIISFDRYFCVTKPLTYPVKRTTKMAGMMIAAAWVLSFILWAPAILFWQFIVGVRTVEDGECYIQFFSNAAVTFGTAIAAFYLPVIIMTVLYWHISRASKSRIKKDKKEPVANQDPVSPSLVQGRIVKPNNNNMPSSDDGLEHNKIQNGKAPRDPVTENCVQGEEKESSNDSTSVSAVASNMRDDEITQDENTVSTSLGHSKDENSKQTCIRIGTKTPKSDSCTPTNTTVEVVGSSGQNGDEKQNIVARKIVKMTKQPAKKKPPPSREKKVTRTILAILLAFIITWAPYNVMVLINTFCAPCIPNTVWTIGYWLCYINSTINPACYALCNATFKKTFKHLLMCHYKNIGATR

[4] = molecular target: Muscarinic acetylcholine receptor M3 (Homo sapiens, UniProt P20309)
[5] = molecular target: Neuronal acetylcholine receptor subunit alpha-4 (Homo sapiens, UniProt P43681)
Cannabinoid receptor 1 = Cannabinoid receptor 1 (Homo sapiens, UniProt P21554); type: functional, cell-based
[6] = molecular target: T2, 5-hydroxytryptamine receptor 1A (Homo sapiens, UniProt P08908); type: functional, cell-based
T2 sequence (P08908 whole entry): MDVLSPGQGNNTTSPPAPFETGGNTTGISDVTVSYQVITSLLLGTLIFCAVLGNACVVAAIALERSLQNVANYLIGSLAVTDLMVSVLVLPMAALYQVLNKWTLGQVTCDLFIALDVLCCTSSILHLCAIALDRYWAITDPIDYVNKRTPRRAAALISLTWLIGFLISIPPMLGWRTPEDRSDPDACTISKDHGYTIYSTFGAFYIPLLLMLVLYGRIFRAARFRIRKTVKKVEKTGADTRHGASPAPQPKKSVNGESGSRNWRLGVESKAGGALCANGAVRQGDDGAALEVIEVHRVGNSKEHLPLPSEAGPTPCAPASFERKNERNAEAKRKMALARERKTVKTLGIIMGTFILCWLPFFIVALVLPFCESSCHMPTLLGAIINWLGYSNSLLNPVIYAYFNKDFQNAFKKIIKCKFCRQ

[7] = molecular target: T3, Prostaglandin G/H synthase 1 (Rattus norvegicus, UniProt Q63921); type: functional
T3 sequence (Q63921 whole entry): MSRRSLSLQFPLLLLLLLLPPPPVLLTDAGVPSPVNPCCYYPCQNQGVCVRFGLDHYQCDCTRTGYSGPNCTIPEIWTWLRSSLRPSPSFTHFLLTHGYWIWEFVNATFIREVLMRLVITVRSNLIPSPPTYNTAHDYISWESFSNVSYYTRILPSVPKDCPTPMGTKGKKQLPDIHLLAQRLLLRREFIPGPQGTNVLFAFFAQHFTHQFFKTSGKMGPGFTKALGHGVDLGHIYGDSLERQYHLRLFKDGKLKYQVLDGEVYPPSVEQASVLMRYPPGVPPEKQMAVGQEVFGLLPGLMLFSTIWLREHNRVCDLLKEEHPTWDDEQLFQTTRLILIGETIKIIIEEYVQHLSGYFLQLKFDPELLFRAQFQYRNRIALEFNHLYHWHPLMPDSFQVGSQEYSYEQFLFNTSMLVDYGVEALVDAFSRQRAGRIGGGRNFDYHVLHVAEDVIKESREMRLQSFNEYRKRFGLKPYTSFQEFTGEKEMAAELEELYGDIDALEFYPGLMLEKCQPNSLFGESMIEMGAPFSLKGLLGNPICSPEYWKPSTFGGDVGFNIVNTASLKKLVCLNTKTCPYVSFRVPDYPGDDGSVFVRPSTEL

Progesterone receptor = molecular target: T4, Progesterone receptor (Homo sapiens, UniProt P06401); type: functional
T4 sequence (P06401 whole entry): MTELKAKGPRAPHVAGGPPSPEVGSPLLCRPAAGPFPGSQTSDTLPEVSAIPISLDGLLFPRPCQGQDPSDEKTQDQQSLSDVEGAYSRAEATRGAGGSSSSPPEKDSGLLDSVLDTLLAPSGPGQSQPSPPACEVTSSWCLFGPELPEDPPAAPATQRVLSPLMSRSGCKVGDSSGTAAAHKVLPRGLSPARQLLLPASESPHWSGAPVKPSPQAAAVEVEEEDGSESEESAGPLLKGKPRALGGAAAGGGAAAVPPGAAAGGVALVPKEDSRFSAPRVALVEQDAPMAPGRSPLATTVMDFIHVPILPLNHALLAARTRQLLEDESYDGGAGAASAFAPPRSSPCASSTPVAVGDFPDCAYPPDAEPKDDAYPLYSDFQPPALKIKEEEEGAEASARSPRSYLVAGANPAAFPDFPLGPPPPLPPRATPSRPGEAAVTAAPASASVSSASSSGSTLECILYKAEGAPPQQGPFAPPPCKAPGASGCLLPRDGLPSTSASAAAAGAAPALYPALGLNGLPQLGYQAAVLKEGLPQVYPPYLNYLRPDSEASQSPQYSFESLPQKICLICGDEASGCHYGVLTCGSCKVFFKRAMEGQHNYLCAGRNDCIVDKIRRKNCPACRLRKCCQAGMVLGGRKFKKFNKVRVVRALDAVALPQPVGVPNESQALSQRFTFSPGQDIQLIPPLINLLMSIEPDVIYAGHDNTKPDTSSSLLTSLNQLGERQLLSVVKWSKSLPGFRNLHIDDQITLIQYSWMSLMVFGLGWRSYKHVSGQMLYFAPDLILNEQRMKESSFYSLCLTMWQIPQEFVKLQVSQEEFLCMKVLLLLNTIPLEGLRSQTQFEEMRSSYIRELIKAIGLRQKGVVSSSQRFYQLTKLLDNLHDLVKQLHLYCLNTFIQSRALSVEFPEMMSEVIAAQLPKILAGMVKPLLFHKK
Also: assay procedure not described here.

Sequence of Muscarinic acetylcholine receptor M3 (P20309 whole entry): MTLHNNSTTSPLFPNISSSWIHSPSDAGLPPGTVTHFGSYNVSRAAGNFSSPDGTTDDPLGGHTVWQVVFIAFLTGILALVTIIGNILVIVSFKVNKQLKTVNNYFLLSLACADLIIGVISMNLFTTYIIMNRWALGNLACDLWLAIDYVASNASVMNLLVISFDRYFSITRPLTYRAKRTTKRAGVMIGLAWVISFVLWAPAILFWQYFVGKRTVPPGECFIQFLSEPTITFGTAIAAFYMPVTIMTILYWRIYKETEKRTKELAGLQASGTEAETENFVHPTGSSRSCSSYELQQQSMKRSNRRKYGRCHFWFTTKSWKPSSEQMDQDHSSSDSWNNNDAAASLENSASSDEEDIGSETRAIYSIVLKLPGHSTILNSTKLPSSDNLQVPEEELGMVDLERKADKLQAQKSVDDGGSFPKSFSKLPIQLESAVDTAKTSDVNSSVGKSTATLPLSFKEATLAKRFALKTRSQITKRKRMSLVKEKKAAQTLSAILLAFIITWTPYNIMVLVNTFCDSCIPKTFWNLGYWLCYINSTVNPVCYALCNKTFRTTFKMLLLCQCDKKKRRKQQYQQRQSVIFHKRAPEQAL
Sequence of Neuronal acetylcholine receptor subunit alpha-4 (P43681 whole entry): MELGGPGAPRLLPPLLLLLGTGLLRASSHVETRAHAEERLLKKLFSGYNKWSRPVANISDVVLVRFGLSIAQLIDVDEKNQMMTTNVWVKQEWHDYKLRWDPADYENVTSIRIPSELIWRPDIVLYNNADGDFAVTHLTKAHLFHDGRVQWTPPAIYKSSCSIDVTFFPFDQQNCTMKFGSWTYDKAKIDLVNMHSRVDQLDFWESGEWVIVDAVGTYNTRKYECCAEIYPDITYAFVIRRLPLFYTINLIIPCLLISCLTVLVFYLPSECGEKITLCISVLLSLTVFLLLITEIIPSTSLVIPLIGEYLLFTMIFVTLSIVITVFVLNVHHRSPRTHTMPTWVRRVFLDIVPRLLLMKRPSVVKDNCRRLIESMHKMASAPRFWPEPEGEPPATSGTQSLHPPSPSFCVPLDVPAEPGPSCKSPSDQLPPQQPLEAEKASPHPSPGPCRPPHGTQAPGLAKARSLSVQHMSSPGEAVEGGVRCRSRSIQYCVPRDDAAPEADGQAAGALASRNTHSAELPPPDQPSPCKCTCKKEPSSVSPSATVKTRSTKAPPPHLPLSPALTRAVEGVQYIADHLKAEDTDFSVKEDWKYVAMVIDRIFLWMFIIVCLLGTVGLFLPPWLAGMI
Sequence of Adenosine receptor A2a (P29274 whole entry): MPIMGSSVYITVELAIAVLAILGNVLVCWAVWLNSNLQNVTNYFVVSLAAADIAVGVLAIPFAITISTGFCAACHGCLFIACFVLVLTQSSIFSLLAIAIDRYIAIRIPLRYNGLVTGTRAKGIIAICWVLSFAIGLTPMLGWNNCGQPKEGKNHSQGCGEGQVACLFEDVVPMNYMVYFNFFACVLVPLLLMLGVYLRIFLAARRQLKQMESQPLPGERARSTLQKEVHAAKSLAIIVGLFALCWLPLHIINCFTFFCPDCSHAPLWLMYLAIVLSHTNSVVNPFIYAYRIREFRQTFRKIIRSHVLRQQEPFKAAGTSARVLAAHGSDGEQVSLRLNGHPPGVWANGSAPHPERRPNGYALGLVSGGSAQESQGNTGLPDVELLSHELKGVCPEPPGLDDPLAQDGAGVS
Sequence of Beta-1 adrenergic receptor (P08588 whole entry): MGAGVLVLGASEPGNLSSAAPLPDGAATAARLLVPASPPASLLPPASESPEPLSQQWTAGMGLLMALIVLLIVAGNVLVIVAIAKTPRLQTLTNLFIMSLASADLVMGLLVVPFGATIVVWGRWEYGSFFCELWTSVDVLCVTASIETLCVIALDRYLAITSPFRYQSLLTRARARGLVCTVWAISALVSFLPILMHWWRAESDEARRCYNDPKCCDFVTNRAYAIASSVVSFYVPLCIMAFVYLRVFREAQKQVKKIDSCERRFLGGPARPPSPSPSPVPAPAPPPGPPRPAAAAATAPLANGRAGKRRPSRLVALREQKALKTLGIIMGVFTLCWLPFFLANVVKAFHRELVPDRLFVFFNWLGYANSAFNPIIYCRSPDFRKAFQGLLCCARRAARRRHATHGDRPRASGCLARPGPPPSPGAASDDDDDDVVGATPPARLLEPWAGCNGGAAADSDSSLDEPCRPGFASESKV
Sequence of Cannabinoid receptor 1 (P21554 whole entry): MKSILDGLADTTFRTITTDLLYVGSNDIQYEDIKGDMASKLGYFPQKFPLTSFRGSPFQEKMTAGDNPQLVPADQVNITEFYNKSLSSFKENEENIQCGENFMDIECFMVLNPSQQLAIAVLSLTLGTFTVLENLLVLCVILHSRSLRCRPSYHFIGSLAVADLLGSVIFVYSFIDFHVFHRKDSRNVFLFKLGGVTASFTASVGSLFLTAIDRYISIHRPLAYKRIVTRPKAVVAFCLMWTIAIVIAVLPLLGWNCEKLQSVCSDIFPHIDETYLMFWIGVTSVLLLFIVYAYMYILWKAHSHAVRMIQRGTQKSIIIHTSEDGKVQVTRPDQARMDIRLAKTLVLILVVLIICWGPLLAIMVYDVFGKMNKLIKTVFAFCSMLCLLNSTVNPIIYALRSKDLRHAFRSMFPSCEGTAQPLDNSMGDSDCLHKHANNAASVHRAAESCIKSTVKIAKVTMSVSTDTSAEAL
Sequence of Beta-2 adrenergic receptor (P07550 whole entry): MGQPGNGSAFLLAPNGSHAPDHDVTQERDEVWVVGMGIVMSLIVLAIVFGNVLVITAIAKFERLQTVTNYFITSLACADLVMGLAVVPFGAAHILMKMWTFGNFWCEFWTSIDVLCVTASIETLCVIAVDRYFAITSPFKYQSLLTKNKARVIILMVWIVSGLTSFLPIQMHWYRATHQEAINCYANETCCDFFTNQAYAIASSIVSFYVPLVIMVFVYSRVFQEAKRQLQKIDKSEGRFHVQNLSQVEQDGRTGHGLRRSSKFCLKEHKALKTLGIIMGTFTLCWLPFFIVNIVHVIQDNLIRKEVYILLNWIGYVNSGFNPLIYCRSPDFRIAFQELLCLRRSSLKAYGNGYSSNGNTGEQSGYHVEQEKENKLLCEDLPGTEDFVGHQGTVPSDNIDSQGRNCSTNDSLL

Compound CC(CCc1ccccc1)NC(C)C(O)c1ccc(O)cc1 (configuration not stated) [NYLIDRIN] has an AC50 (Adenosine receptor A2a) greater than 30 µM, an AC50 [1] of 3.95 µM and an AC50 [2] of 0.218 µM. It also gave an AC50 [3] greater than 10 µM, an AC50 [4] greater than 10 µM and an AC50 [5] greater than 10 µM. For the same compound, the AC50 (Cannabinoid receptor 1) was greater than 30 µM, the AC50 [6] was 12 µM and the AC50 [7] was greater than 30 µM.
In the case of O=C1Nc2ccc(Cl)cc2C(c2ccccc2)=NC1O (configuration not stated) [OXAZEPAM], the AC50 (Adenosine receptor A2a) is reported as greater than 30 µM, the AC50 [1] is reported as greater than 10 µM and the AC50 [2] is reported as greater than 10 µM. The AC50 [3] was greater than 10 µM, the AC50 [4] was greater than 10 µM and the AC50 [5] was greater than 10 µM. For the same compound, the AC50 (Cannabinoid receptor 1) was greater than 30 µM, the AC50 [6] was greater than 10 µM and the AC50 [7] was greater than 30 µM.
For NC(=O)CCC/N=C(\c1ccc(Cl)cc1)c1cc(F)ccc1O [PROGABIDE], the AC50 (Adenosine receptor A2a) was greater than 10 µM, the AC50 [1] was greater than 10 µM and the AC50 [2] was greater than 10 µM. The AC50 [3] was greater than 10 µM, the AC50 [4] was greater than 30 µM and the AC50 [5] was greater than 10 µM. For the same compound, the AC50 (Cannabinoid receptor 1) was greater than 30 µM, the AC50 [6] was greater than 10 µM and the AC50 (Progesterone receptor) was greater than 10 µM. For the same compound, the AC50 [7] was greater than 10 µM.
For CCCC(C)(COC(N)=O)COC(=O)NC(C)C (configuration not stated) [CARISOPRODOL], the AC50 (Adenosine receptor A2a) was greater than 30 µM, the AC50 [1] was greater than 10 µM and the AC50 [2] was greater than 10 µM. It also gave an AC50 [3] greater than 10 µM, an AC50 [4] greater than 10 µM and an AC50 [5] greater than 10 µM. The AC50 (Cannabinoid receptor 1) was greater than 30 µM, the AC50 [6] was greater than 10 µM and the AC50 [7] was greater than 30 µM.
C#C[C@]1(O)CC[C@H]2[C@@H]3CCC4=CC(=O)CCC4=C3C=C[C@@]21CC [GESTRINONE] showed an AC50 (Adenosine receptor A2a) greater than 30 µM, an AC50 [1] greater than 30 µM and an AC50 [2] greater than 30 µM. For the same compound, the AC50 [3] was greater than 30 µM, the AC50 [4] was greater than 30 µM and the AC50 [5] was greater than 30 µM. It also gave an AC50 (Cannabinoid receptor 1) greater than 30 µM, an AC50 [6] greater than 30 µM and an AC50 [7] greater than 30 µM.
CC1(C)C(C=C(Cl)Cl)C1C(=O)OCc1cccc(Oc2ccccc2)c1 (configuration not stated) [PERMETHRIN] gave an AC50 (Adenosine receptor A2a) greater than 10 µM, an AC50 [1] greater than 10 µM and an AC50 [2] greater than 10 µM. It also gave an AC50 [3] greater than 10 µM, an AC50 [4] greater than 30 µM and an AC50 [5] greater than 10 µM. For the same compound, the AC50 [6] was greater than 10 µM, the AC50 (Progesterone receptor) was greater than 30 µM and the AC50 [7] was greater than 10 µM.
For CC(NCCc1ccc(O)cc1)C(O)c1ccc(O)cc1 (configuration not stated) [RITODRINE], the AC50 (Adenosine receptor A2a) was greater than 30 µM, the AC50 [1] was 17 µM and the AC50 [2] was 4.71 µM and 4.14 µM. It also gave an AC50 [3] greater than 30 µM, an AC50 [4] greater than 30 µM and an AC50 [5] greater than 30 µM. For the same compound, the AC50 [6] was greater than 10 µM, the AC50 (Progesterone receptor) was greater than 30 µM and the AC50 [7] was greater than 30 µM.
With NS(=O)(=O)c1cc2c(cc1C(F)(F)F)NC(Cc1ccccc1)NS2(=O)=O (configuration not stated) [BENDROFLUMETHIAZIDE] the AC50 (Adenosine receptor A2a) was greater than 10 µM, the AC50 [1] was greater than 10 µM and the AC50 [2] was greater than 10 µM. It also gave an AC50 [3] greater than 10 µM, an AC50 [4] greater than 30 µM and an AC50 [5] greater than 10 µM. For the same compound, the AC50 [6] was greater than 10 µM, the AC50 (Progesterone receptor) was greater than 10 µM and the AC50 [7] was greater than 10 µM.
Compound O=C1CN=C(c2ccccc2)c2cc(Cl)ccc2N1 [NORDAZEPAM] has an AC50 (Adenosine receptor A2a) greater than 30 µM, an AC50 [1] greater than 10 µM and an AC50 [2] greater than 10 µM. For the same compound, the AC50 [3] was greater than 10 µM, the AC50 [4] was greater than 10 µM and the AC50 [5] was greater than 10 µM. The AC50 (Cannabinoid receptor 1) was greater than 30 µM, the AC50 [6] was greater than 10 µM and the AC50 [7] was greater than 30 µM.
